How the values were obtained:
Assay type in all cases: cell-based, human
CD9 = test: Flow cytometry of platelet antigen expression, platelet rich plasma; conditions: for CD9 (mean) log fluorescence intensity / CD9 (peak) log fluorescence intensity: PRP
Text: (§1) For ex vivo assessment of the SSRIs effect on a PAM, a level of a PAM can be assessed by flow cytometry by first obtaining a sample that comprises platelets and then contacting the sample with a platelet activation agonist, such as phorbol myristate acetate (PMA), ADP (adenosine diphosphate), thrombin, collagen, and/or TRAP (thrombin receptor activating peptide), under conditions suitable for activation of platelets in the sample. The sample is in contact with the agonist preferably for a period of time effective to maximally activate the platelets. […] NDMS at 31.1, 64.1 or 143 ng./ml). Then one contacts or stains the samples with a composition that comprises an anti-PAM antibody e.g., having a fluorescent label, preferably in an amount in excess of that required to bind the PAM expressed on the platelets, under conditions suitable for the formation of labeled complexes between the anti-PAM antibody and activated platelets. Then the formation of the complex in the sample is determined (detected or measured). […] The blood-ACD mixture was centrifuged at 1000 r.p.m. for 10 minutes at room temperature. […] The PRP was then centrifuged at 3000 r.p.m. for 10 minutes. […] All cells were then divided into ten plastic capped tubes. Nine portions of washed platelets were incubated with 5 μfluorescein isothiocyanate (FITC)-conjugated antibodies in the dark at +4 °C for 30 minutes, and one part remained unstained and served as a negative control. Surface antigen expression was measured with monoclonal murine anti-human antibodies: CD9 (p24); CD41a (IIb/IIIa, aIIIbb3); CD42b (Ib); CD61(IIIa) (DAKO Corporation, Carpinteria Calif.); CD49b (VLA-2, or a2b1); CD62p (P-selectin); CD31 (PECAM-1); […] The instrument was calibrated daily with fluorescence beads (CaliBRITE; Becton Dickinson) and measured FITC-conjugated fluorescence intensity. All parameters were obtained using four decade logarithmic amplification. The data was collected and stored in list mode, and then analyzed using CELLQuest® (version 1.2.2) software. Procedures are described in detail in (Gurbel, P. […] Serebruany, V. […] Gurbel, P. A. et al., Coron Artery Dis 9: 451-456 (1998) and Serebruany, V. L. et al., Arterioscl Thromb Vasc Biol 19: 153-158 (1999)). The data in table 1 was obtained using the methods described herein, and in particular, in Examples 1 and 2. The levels of various PAMs were assess from samples of human volunteers.

GP Ib = test: as above; conditions: for GP Ib (mean) log fluorescence intensity / GP Ib (peak) log fluorescence intensity: PRP
Text: as §1

PECAM-1 = test: as above; conditions: for PECAM-1 (mean) log fluorescence intensity / PECAM-1 (peak) log fluorescence intensity: PRP
Text: as §1

GP IIb/IIIa = test: as above; conditions: for GP IIb/IIIa (mean) log fluorescence intensity / GP IIb/IIIa (peak) log fluorescence intensity: PRP
Text: as §1

CPIa-IIa = test: as above; conditions: for CPIa-IIa (mean) log fluorescence intensity / CPIa-IIa (peak) log fluorescence intensity: PRP
Text: as §1

GP IIb = test: as above; conditions: PRP
Text: as §1

platelets = test: Platelet aggregation in platelet rich plasma (ADP or collagen)
Experimental: Trisodium citrate (3.8%) and whole blood is immediately mixed in a 1:9 ratio, and then centrifuged at 1200 g for 2.5 minutes, to obtain platelet-rich plasma (PRP), which is kept at room temperature for use within 1 hour for platelet aggregation studies. Platelet count is determined in each PRP sample with a Coulter Counter ZM (Coulter Co., Hialeah, Fla.). Platelet numbers are adjusted to 3.50×10^8/ml for aggregation with homologous platelet-poor plasma. PRP and whole blood aggregation tests are performed simultaneously. Whole blood is diluted 1.1 with the 0.5 ml PBS, and then swirled gently to mix . The cuvette with the stirring bar is placed in the incubation well and allowed to warm to 37° C. for 5 minutes. Then the sample are transferred to the assay well. An electrode is placed in the sample cuvette. Platelet aggregation is stimulated with 5 μM ADP, 1 μg/ml collagen, and 0.75 mM arachidonic acid. All agonists are obtained from Chronolog Corporation (Hawertown, Pa.). Platelet aggregation studies are performed using a Chrono-Log Whole Blood Lumi-Aggregometer (model 560 -Ca). Platelet aggregability are expressed as the percentage of light transmittance change from baseline using platelet-poor plasma as a reference at the end of recording time for plasma samples, or as a change in electrical impedance for whole blood samples. Aggregation curves are recorded for 4 minutes and analyzed according to internationally established standards using Aggrolinkg® software.

[1] = healthy volunteers, sertraline 18.1 ng/ml
[2] = healthy volunteers, sertraline 44.7 ng/ml
[3] = healthy volunteers, sertraline 85.3 ng/ml
[4] = post-angioplasty patient on aspirin, sertraline 18.1 ng/ml
[5] = post-angioplasty patient on aspirin, sertraline 44.7 ng/ml
[6] = post-angioplasty patient on aspirin, sertraline 85.3 ng/ml
[7] = plasma concentration 85.3 ng/ml, equivalent to 200 mg/daily

## CN[C@H]1CC[C@@H](c2ccc(Cl)c(Cl)c2)c2ccccc21 [sertraline]
CD9; [1]
  CD9 (mean) log fluorescence intensity: 948
  CD9 (peak) log fluorescence intensity: 938
CD9; [2]
  CD9 (mean) log fluorescence intensity: 905
  CD9 (peak) log fluorescence intensity: 777
CD9; [3]
  CD9 (mean) log fluorescence intensity: 742
  CD9 (peak) log fluorescence intensity: 716
CD9; [4]
  CD9 (mean) log fluorescence intensity: 949
  CD9 (peak) log fluorescence intensity: 1027
CD9; [5]
  CD9 (mean) log fluorescence intensity: 1015
  CD9 (peak) log fluorescence intensity: 850
CD9; [6]
  CD9 (mean) log fluorescence intensity: 984
  CD9 (peak) log fluorescence intensity: 964
CD9; [7]
  surface expression of CD9 (p24), in words: diminished surface expression
GP Ib; 18.1, 44.7 or 85.5 ng/mL of sertraline
  GPIb expression, flow cytometric graph (FIG. 8), in words: dose dependent decrease in the expression
GP Ib; [1]
  GP Ib (mean) log fluorescence intensity: 139
  GP Ib (peak) log fluorescence intensity: 125
GP Ib; [2]
  GP Ib (mean) log fluorescence intensity: 97
  GP Ib (peak) log fluorescence intensity: 74
GP Ib; [3]
  GP Ib (mean) log fluorescence intensity: 65
  GP Ib (peak) log fluorescence intensity: 67
GP Ib; [4]
  GP Ib (mean) log fluorescence intensity: 324
  GP Ib (peak) log fluorescence intensity: 305
GP Ib; [5]
  GP Ib (mean) log fluorescence intensity: 220
  GP Ib (peak) log fluorescence intensity: 257
GP Ib; [6]
  GP Ib (mean) log fluorescence intensity: 182
  GP Ib (peak) log fluorescence intensity: 186
GP Ib; [7]
  surface expression of GPIb, in words: diminished surface expression
PECAM-1; 44.7, 85.3 ng/mL of sertraline
  PECAM-1 expression, flow cytometric graph (FIG. 10), in words: dose dependent decrease in the expression
PECAM-1; [1]
  PECAM-1 (mean) log fluorescence intensity: 117
  PECAM-1 (peak) log fluorescence intensity: 88
PECAM-1; [2]
  PECAM-1 (mean) log fluorescence intensity: 104
  PECAM-1 (peak) log fluorescence intensity: 71
PECAM-1; [3]
  PECAM-1 (mean) log fluorescence intensity: 84
  PECAM-1 (peak) log fluorescence intensity: 66
PECAM-1; [4]
  PECAM-1 (mean) log fluorescence intensity: 94
  PECAM-1 (peak) log fluorescence intensity: 76
PECAM-1; [5]
  PECAM-1 (mean) log fluorescence intensity: 99
  PECAM-1 (peak) log fluorescence intensity: 98
PECAM-1; [6]
  PECAM-1 (mean) log fluorescence intensity: 97
  PECAM-1 (peak) log fluorescence intensity: 93
PECAM-1; [7]
  surface expression of PECAM-1, in words: diminished surface expression
GP IIb/IIIa; 44.7, 85.3 ng/mL of sertraline
  GP IIb/IIIa expression, flow cytometric graph (FIG. 9), in words: dose dependent decrease in the expression
GP IIb/IIIa; [1]
  GP IIb/IIIa (mean) log fluorescence intensity: 1038
  GP IIb/IIIa (peak) log fluorescence intensity: 991
GP IIb/IIIa; [2]
  GP IIb/IIIa (mean) log fluorescence intensity: 748
  GP IIb/IIIa (peak) log fluorescence intensity: 518
GP IIb/IIIa; [3]
  GP IIb/IIIa (mean) log fluorescence intensity: 533
  GP IIb/IIIa (peak) log fluorescence intensity: 421
GP IIb/IIIa; [4]
  GP IIb/IIIa (mean) log fluorescence intensity: 911
  GP IIb/IIIa (peak) log fluorescence intensity: 679
GP IIb/IIIa; [5]
  GP IIb/IIIa (mean) log fluorescence intensity: 962
  GP IIb/IIIa (peak) log fluorescence intensity: 798
GP IIb/IIIa; [6]
  GP IIb/IIIa (mean) log fluorescence intensity: 1035
  GP IIb/IIIa (peak) log fluorescence intensity: 922
GP IIb/IIIa; [7]
  surface expression of glycoprotein IIb/IIIa complex (GP IIb/IIIa), in words: diminished surface expression
CPIa-IIa; [1]
  CPIa-IIa (mean) log fluorescence intensity: 51
  CPIa-IIa (peak) log fluorescence intensity: 47
CPIa-IIa; [2]
  CPIa-IIa (mean) log fluorescence intensity: 49
  CPIa-IIa (peak) log fluorescence intensity: 37
CPIa-IIa; [3]
  CPIa-IIa (mean) log fluorescence intensity: 35
  CPIa-IIa (peak) log fluorescence intensity: 30
CPIa-IIa; [4]
  CPIa-IIa (mean) log fluorescence intensity: 63
  CPIa-IIa (peak) log fluorescence intensity: 55
CPIa-IIa; [5]
  CPIa-IIa (mean) log fluorescence intensity: 70
  CPIa-IIa (peak) log fluorescence intensity: 60
CPIa-IIa; [6]
  CPIa-IIa (mean) log fluorescence intensity: 67
  CPIa-IIa (peak) log fluorescence intensity: 60
CPIa-IIa; [7]
  surface expression of very late antigen-2 (VLA-2, or GPIb-IIa), in words: diminished surface expression
GP IIb; [1]
  GP IIb (mean) log fluorescence intensity: 31
  GP IIb (peak) log fluorescence intensity: 26
GP IIb; [2]
  GP IIb (mean) log fluorescence intensity: 31
  GP IIb (peak) log fluorescence intensity: 35
GP IIb; [3]
  GP IIb (mean) log fluorescence intensity: 30
  GP IIb (peak) log fluorescence intensity: 22
GP IIb; [4]
  GP IIb (mean) log fluorescence intensity: 30
  GP IIb (peak) log fluorescence intensity: 29
GP IIb; [5]
  GP IIb (mean) log fluorescence intensity: 27
  GP IIb (peak) log fluorescence intensity: 31
GP IIb; [6]
  GP IIb (mean) log fluorescence intensity: 37
  GP IIb (peak) log fluorescence intensity: 34
platelets; PRP, healthy volunteer, induced with ADP or collagen, sertraline 18.1, 44.7 or 85.3 ng/ml
  percent of platelet aggregation (FIGS. 2 and 3), in words: decreases with increasing amounts of sertraline
platelets; PRP, post-coronary angioplasty patient, activated with ADP or collagen
  platelet aggregation in PRP (FIGS. 5 and 6), in words: decrease in platelet aggregation
platelets; healthy controls and patients with coronary artery disease, including those on aspirin
  ADP-, and collagen-induced platelet aggregation in plasma (in vitro), in words: Dose-dependent inhibition

From patent US6552014B2, “Methods of inhibiting platelet activation with selective serotonin reuptake inhibitors” (HeartDrug Research, L.L.C., priority 1999, dated 2003)
